We go through nine compounds from ChEMBL document CHEMBL2396653, “Synthesis and antimycobacterial evaluation of N-substituted 5-chloropyrazine-2-carboxamides” (Bioorg Med Chem Lett, 2013).

Molecules are shown by their SMILES. Values after ≈ are worked out from the molar mass of the structure shown. Active and inactive are the calls of the source. The calls are words filed in the database; no cut-off is given here. A value given as a limit tells only on which side of the number the result lay.

As a reminder, the MIC is the least concentration at which growth counts as inhibited.

One data set concerns Candida tropicalis. Description: Antifungal activity against Candida tropicalis 156 assessed as growth inhibition after 24 to 48 hrs by microbroth dilution method. Format: functional, organism-based.
In another data set the test system is Pichia kudriavzevii. Description: Antifungal activity against Candida krusei E28 assessed as growth inhibition after 24 to 48 hrs by microbroth dilution method. Type of data set: functional, organism-based. On the technique in general: Broth dilution looks for growth in wells or tubes with falling amounts of substance.
The test system of the next data set is Candida albicans. Description: Antifungal activity against Candida albicans ATCC 44859 assessed as growth inhibition after 24 to 48 hrs by microbroth dilution method. Format: functional, organism-based.
Data set [1] has as its system Trichophyton mentagrophytes. Kind of data set: Antifungal activity against Trichophyton mentagrophytes 445 assessed as growth inhibition after 72 to 120 hrs by microbroth dilution method. Format: functional, organism-based.
The next data set concerns Lichtheimia corymbifera. Description: Antifungal activity against Absidia corymbifera 272 assessed as growth inhibition after 24 to 48 hrs by microbroth dilution method. Format: functional, organism-based.
For another data set, the system named is Nakaseomyces glabratus. Description: Antifungal activity against Candida glabrata 20/I assessed as growth inhibition after 24 to 48 hrs by microbroth dilution method. Format: functional, organism-based.
In the next data set the test system is Trichosporon asahii. Description: Antifungal activity against Trichosporon asahii 1188 assessed as growth inhibition after 24 to 48 hrs by microbroth dilution method. Format: functional, organism-based.
Another data set relates to Aspergillus fumigatus. Description: Antifungal activity against Aspergillus fumigatus 231 assessed as growth inhibition after 24 to 48 hrs by microbroth dilution method. Type of data set: functional, organism-based.
The test system of data set [2] is Staphylococcus aureus. Kind of data set: Antibacterial activity against Staphylococcus aureus CCM 4516/08 assessed as growth inhibition after 24 to 48 hrs by microbroth dilution method. Type of data set: functional, organism-based.
For data set [3], the system named is Mycobacterium tuberculosis. Kind of data set: Antimycobacterial activity against Mycobacterium tuberculosis H37Rv assessed as growth inhibition after 14 days by microdilution method. Format: functional. The conditions noted are these: 336 h.
A short description of data set [4]: Stability of the compound at pH 7. Format: physicochemical. The conditions noted are these: buffer.
The next data set has as its system Enterococcus. Kind of data set: Antibacterial activity against Enterococcus sp. J 14365/08 clinical isolate assessed as growth inhibition after 24 to 48 hrs by microbroth dilution method. Format: functional, organism-based.
Data set [5] has as its system Staphylococcus aureus. Kind of data set: Antibacterial activity against methicillin-resistant Staphylococcus aureus H 5996/08 clinical isolate assessed as growth inhibition after 24 to 48 hrs by microbroth dilution method. Format: functional, organism-based.
The test system of the next data set is Mycobacterium kansasii. Kind of data set: Antimycobacterial activity against Mycobacterium kansasii CNCTC My 235/80 assessed as growth inhibition after 14 days by microdilution method. Type of data set: functional. To be noted: CNCTC My 235/80, 336 h.
Data set [6] can be described thus: Lipophilicity, log K of the compound by HPLC analysis. Format: physicochemical.
The next data set has as its system Escherichia coli. Kind of data set: Antibacterial activity against Escherichia coli CCM 4517 assessed as growth inhibition after 24 to 48 hrs by microbroth dilution method. Type of data set: functional, organism-based.
Data set [7] relates to Klebsiella pneumoniae. Kind of data set: Antibacterial activity against ESBL-positive Klebsiella pneumoniae J 14368/08 clinical isolate assessed as growth inhibition after 24 to 48 hrs by microbroth dilution method. Type of data set: functional, organism-based.
For data set [8], the system named is Mycobacterium avium. Description: Antimycobacterial activity against Mycobacterium avium CNCTC My 152/73 assessed as growth inhibition after 14 days by microdilution method. To be noted: CNCTC My 152/73, 336 h. Format: functional.
In another data set the test system is Pseudomonas aeruginosa. Kind of data set: Antibacterial activity against Pseudomonas aeruginosa CCM 1961 assessed as growth inhibition after 24 to 48 hrs by microbroth dilution method. Format: functional, organism-based.
Data set [9] deals with Klebsiella pneumoniae. Description: Antibacterial activity against Klebsiella pneumoniae D 11750/08 clinical isolate assessed as growth inhibition after 24 to 48 hrs by microbroth dilution method. Format: functional, organism-based.
For data set [10], the system named is Mycobacterium avium. Description: Antimycobacterial activity against Mycobacterium avium CNCTC My 80/72 assessed as growth inhibition after 14 days by microdilution method. Type of data set: functional. To be noted: CNCTC My 80/72, 336 h.
For data set [11], the system named is Staphylococcus epidermidis. Description: Antibacterial activity against Staphylococcus epidermidis H 6966/08 clinical isolate assessed as growth inhibition after 24 to 48 hrs by microbroth dilution method. Type of data set: functional, organism-based.

For the compound `OC(Cn1cncn1)(Cn1cncn1)c1ccc(F)cc1F`, the “growth inhibition (GI)” value (in the data set with Candida tropicalis; in the data set with Pichia kudriavzevii; in the data set on Candida albicans; in data set [1]; in the data set on Lichtheimia corymbifera; in the data set with Nakaseomyces glabratus) was “Active” in each case. In addition, the “growth inhibition (GI)” value with Trichosporon asahii and in the data set with Aspergillus fumigatus was “Active” each time.
As to `COc1ccc(NC(=O)c2cnc(Cl)cn2)c(OC)c1`, the “growth inhibition (GI)” value (in the data set with Candida tropicalis; in the data set with Staphylococcus aureus [2]; in the data set on Pichia kudriavzevii; in the data set with Enterococcus; with Candida albicans; in [1]) was “inactive” in each case. Further, the “growth inhibition (GI)” value with Staphylococcus aureus [5], with Lichtheimia corymbifera, in the data set with Nakaseomyces glabratus, in the data set on Escherichia coli, with Klebsiella pneumoniae [7] and in the data set on Trichosporon asahii was “inactive” each time. Further, the “growth inhibition (GI)” value (in the data set on Pseudomonas aeruginosa; in the data set with Aspergillus fumigatus; in the data set on Klebsiella pneumoniae [9]; in data set [11]) was “inactive” throughout. Besides, the MIC (in data set [3]; in the data set with Mycobacterium kansasii; in the data set on Mycobacterium avium [8]; in the data set on Mycobacterium avium [10]) was > 100 µg/mL each time. In [4], the Stability result is “Stable”. For the same compound, the “log K” value in [6] was determined as 0.5791.
As for `O=C(NCc1ccccc1F)c1cnc(Cl)cn1`, the “growth inhibition (GI)” value (in the data set on Candida tropicalis; in the data set with Staphylococcus aureus [2]; in the data set on Pichia kudriavzevii; in the data set on Enterococcus; in the data set on Candida albicans; in data set [1]) was “inactive” throughout. For the same compound, the “growth inhibition (GI)” value in the data set with Staphylococcus aureus [5], in the data set with Lichtheimia corymbifera, in the data set with Nakaseomyces glabratus, in the data set on Escherichia coli, with Klebsiella pneumoniae [7] and with Trichosporon asahii was “inactive” each time. Also, the “growth inhibition (GI)” value (in the data set on Pseudomonas aeruginosa; in the data set with Aspergillus fumigatus; in the data set on Klebsiella pneumoniae [9]; in data set [11]) was “inactive” in each case. Moreover, the MIC in data set [3] was 25 µg/mL (≈ 94.1 µM); with Mycobacterium kansasii it was 50 µg/mL (≈ 188 µM); with Mycobacterium avium [8] it was > 100 µg/mL; in the data set on Mycobacterium avium [10], > 100 µg/mL. In addition, in data set [4], the Stability entry is recorded as “Stable”. Moreover, the “log K” value in data set [6] came to 0.3395.
Turning to `Cc1ccc(CNC(=O)c2cnc(Cl)cn2)cc1`, the “growth inhibition (GI)” value (in the data set on Candida tropicalis; in the data set on Staphylococcus aureus [2]; with Pichia kudriavzevii; in the data set on Enterococcus; in the data set on Candida albicans; in [1]) was “inactive” in each case. For the same compound, the “growth inhibition (GI)” value in the data set with Staphylococcus aureus [5], in the data set on Lichtheimia corymbifera, in the data set on Nakaseomyces glabratus, in the data set on Escherichia coli, with Klebsiella pneumoniae [7] and with Trichosporon asahii was “inactive” each time. The “growth inhibition (GI)” value (in the data set with Pseudomonas aeruginosa; with Aspergillus fumigatus; in the data set with Klebsiella pneumoniae [9]; in data set [11]) was “inactive” each time. The MIC in data set [3] is 25 µg/mL (≈ 95.5 µM); in the data set with Mycobacterium kansasii, 3.13 µg/mL (≈ 12 µM); in the data set with Mycobacterium avium [8] it was > 100 µg/mL; in the data set with Mycobacterium avium [10], > 100 µg/mL. In addition, the Stability entry in data set [4] is “Stable”. The “log K” value in data set [6] amounted to 0.4199.
Turning to `O=C(Nc1cccc([N+](=O)[O-])c1)c1cnc(Cl)cn1`, the “growth inhibition (GI)” value (in the data set on Candida tropicalis; in the data set on Staphylococcus aureus [2]; in the data set on Pichia kudriavzevii; with Enterococcus; in the data set on Candida albicans; in data set [1]) was “inactive” throughout. Further, the “growth inhibition (GI)” value with Staphylococcus aureus [5], in the data set with Lichtheimia corymbifera, with Nakaseomyces glabratus, in the data set on Escherichia coli, with Klebsiella pneumoniae [7] and with Trichosporon asahii was “inactive” in each case. Also, the “growth inhibition (GI)” value (in the data set on Pseudomonas aeruginosa; with Aspergillus fumigatus; with Klebsiella pneumoniae [9]; in data set [11]) was “inactive” throughout. For the same compound, the MIC in data set [3] was 3.13 µg/mL (≈ 11.2 µM); with Mycobacterium avium [8], > 100 µg/mL; with Mycobacterium avium [10] it was > 100 µg/mL. Moreover, the Stability result in data set [4] is “Stable”. Also, the “log K” value in data set [6] is listed as 0.3443.
On to `O=C(Nc1ccc(Br)cc1)c1cnc(Cl)cn1`, for which the “growth inhibition (GI)” value (in the data set on Candida tropicalis; with Staphylococcus aureus [2]; in the data set with Pichia kudriavzevii; with Enterococcus; with Candida albicans; in data set [1]) was “inactive” throughout. Besides, the “growth inhibition (GI)” value in the data set with Staphylococcus aureus [5], with Lichtheimia corymbifera, with Nakaseomyces glabratus, in the data set on Escherichia coli, in the data set with Klebsiella pneumoniae [7] and with Trichosporon asahii was “inactive” throughout. In addition, the “growth inhibition (GI)” value (with Pseudomonas aeruginosa; with Aspergillus fumigatus; in the data set with Klebsiella pneumoniae [9]; in data set [11]) was “inactive” throughout. Further, the MIC is 3.13 µg/mL (≈ 10 µM) in [3], 6.25 µg/mL (≈ 20 µM) in the data set with Mycobacterium kansasii, > 100 µg/mL with Mycobacterium avium [8] and > 100 µg/mL with Mycobacterium avium [10]. Also, the Stability result in data set [4] is given as “Stable”. Further, the “log K” value in [6] was 0.6601.
Take `NNC(=O)c1ccncc1` [ISONIAZID]: the MIC was found to be 1.56 µg/mL (≈ 11.4 µM) in [3], 12.5 µg/mL (≈ 91.1 µM) in the data set with Mycobacterium kansasii, 6.25 µg/mL (≈ 45.6 µM) in the data set on Mycobacterium avium [8] and 25 µg/mL (≈ 182 µM) in the data set with Mycobacterium avium [10].
With `O=C(Nc1ccccc1Cl)c1cnc(Cl)cn1`, the “growth inhibition (GI)” value (with Candida tropicalis; in the data set with Staphylococcus aureus [2]; with Pichia kudriavzevii; in the data set with Enterococcus; in the data set with Candida albicans; in [1]) was “inactive” in each case. In addition, the “growth inhibition (GI)” value with Staphylococcus aureus [5], in the data set on Lichtheimia corymbifera, in the data set on Nakaseomyces glabratus, in the data set on Escherichia coli, with Klebsiella pneumoniae [7] and in the data set on Trichosporon asahii was “inactive” in each case. In addition, the “growth inhibition (GI)” value (in the data set with Pseudomonas aeruginosa; in the data set with Aspergillus fumigatus; in the data set with Klebsiella pneumoniae [9]; in data set [11]) was “inactive” each time. The MIC in data set [3] is 0.78 µg/mL (≈ 2.91 µM); in the data set with Mycobacterium avium [8], > 100 µg/mL; in the data set on Mycobacterium avium [10], > 100 µg/mL. The Stability entry in [4] is “Stable”. Besides, the “log K” value in data set [6] is 0.8193.
Consider `NC(=O)c1cnccn1` [PYRAZINAMIDE], for which the MIC in [3] was 12.5 µg/mL (≈ 102 µM); in the data set on Mycobacterium kansasii, > 100 µg/mL; with Mycobacterium avium [8], > 100 µg/mL; in the data set on Mycobacterium avium [10] it was > 100 µg/mL.
